Reference: patent US9884818B2, “Sulphamoylpyrrolamide derivatives and the use thereof as medicaments for the treatment of hepatitis B” (Janssen Sciences Ireland UC, priority 2013, dated 2018)
pEC50: −log10 of the molar value.

Assays:
[1] = Cytotoxicity in HepG2 cells, Resazurin viability assay; conditions: human, HepG2 cells, HepG2 4 days CC50 (μM), incubated for 4 days, Resazurin assay
[2] = system: HBV; assay: Anti-HBV activity, HepG2.2.15 stable transfected cell line, HBV DNA from secreted virions by realtime PCR; type: cell-based; conditions: Hepatitis B virus, HepG2.2.15, 144 h, HepG2.2.15 cells, 6 days of treatment, HBV DNA from secreted virions; read-out: HepG2 2.15 EC50
[3] = system: HBV; assay: Anti-HBV activity, HepG2.117 inducibly HBV producing cell line (Tet-off), intracellular HBV DNA by realtime PCR; type: cell-based; conditions: Hepatitis B virus, HepG2.117, 72 h, HepG2.117 cells, 3 days of treatment, intracellular HBV DNA; read-out: HepG2 117 EC50

Row | Compound | CC50 at 4 days [1] [µM] | pEC50 [2] | pEC50 [3]
1 | CC(C)n1cc(S(=O)(=O)N[C@H](C)C(F)(F)F)c(Cl)c1C(=O)Nc1ccc(F)c(C#N)c1 [Compound 291, 3-chloro-N-(3-cyano-4-fluoro-phenyl)-1-isopropyl-4-[[(1R)-2,2,2-trifluoro-1-methyl-ethyl]sulfamoyl]pyrrole-2-carboxamide] | > 25 | 6.38 | 6.41
2 | C[C@H](NS(=O)(=O)c1cc(C(=O)Nc2ccc(F)c(Br)c2F)n(C)c1)C(F)(F)F [Compound 155, N-(3-Bromo-2,4-difluorophenyl)-1-methyl-4-{[(1S)-2,2,2-trifluoro-1-methylethyl]sulfamoyl}-1H-pyrrole-2-carboxamide] | > 25 | 7.52 | 7.30
3 | Cn1cc(S(=O)(=O)NC(C)(C)C)c(Cl)c1C(=O)Nc1ccc(F)c(F)c1 [Compound 223, 4-(tert-Butylsulfamoyl)-3-chloro-N-(3,4-difluorophenyl)-1-methyl-1H-pyrrole-2-carboxamide] | > 25 | 6.92 | 7.05
4 | Cc1cc(NC(=O)c2cc(S(=O)(=O)NC3(C)CCOC3)cn2C)ccc1F (stereo not shown) [Compound 11, N-(4-fluoro-3-methyl-phenyl)-1-methyl-4-[(3-methyltetrahydrofuran-3-yl)sulfamoyl]pyrrole-2-carboxamide] | > 25 | 7.52 | 7.70
5 | Cn1cc(S(=O)(=O)NC2CCC(F)(F)C2)cc1C(=O)Nc1cc(F)c(F)c(Cl)c1 (racemic) [Compound 166, N-(3-Chloro-4,5-difluorophenyl)-4-[(3,3-difluorocyclopentyl)sulfamoyl]-1-methyl-1H-pyrrole-2-carboxamide] | > 25 | 6.85 | 6.92
6 | CC[C@@H](NS(=O)(=O)c1cn(C)c(C(=O)Nc2ccc(F)c(C#N)c2)c1Cl)C(F)(F)F [Compound 290, 3-chloro-N-(3-cyano-4-fluoro-phenyl)-1-methyl-4-[[(1R)-1-(trifluoro-methyl)propyl]sulfamoyl]pyrrole-2-carboxamide] | > 25 | – | 7.70
7 | C[C@@H](NS(=O)(=O)c1cn(C)c(C(=O)Nc2ccc(F)c(C(F)F)c2)c1F)C(F)(F)F [Compound 286, N-[3-(difluoromethyl)-4-fluoro-phenyl]-3-fluoro-1-methyl-4-[[(1R)-2,2,2-trifluoro-1-methyl-ethyl]sulfamoyl]pyrrole-2-carboxamide] | 21.9 | – | 8.30
8 | C[C@@H](NS(=O)(=O)c1c(F)c(C(=O)Nc2ccc(F)c(C#N)c2)n(C)c1Br)C(F)(F)F [Compound 301, 5-bromo-N-(3-cyano-4-fluoro-phenyl)-3-fluoro-1-methyl-4-[[(1R)-2,2,2-trifluoro-1-methyl-ethyl]sulfamoyl]pyrrole-2-carboxamide] | > 25 | – | 8.15
9 | Cc1c(S(=O)(=O)N[C@H](C)C(F)(F)F)c(F)c(C(=O)Nc2ccc(F)c(C#N)c2)n1C [Compound 299, N-(3-cyano-4-fluoro-phenyl)-3-fluoro-1,5-dimethyl-4-[[(1R)-2,2,2-trifluoro-1-methyl-ethyl]sulfamoyl]pyrrole-2-carboxamide] | > 25 | – | 8.05
10 | C[C@@H](NS(=O)(=O)c1cn(C)c(C(=O)Nc2ccc(F)cc2F)c1F)C(F)(F)F [Compound 312, N-(2,4-difluorophenyl)-3-fluoro-1-methyl-4-[[(1R)-2,2,2-trifluoro-1-methyl-ethyl]sulfamoyl]pyrrole-2-carboxamide] | > 25 | – | 7.22
11 | Cc1cc(NC(=O)c2c(Br)c(S(=O)(=O)N[C@H](C)C(F)(F)F)cn2C)ccc1F [Compound 308, 3-bromo-N-(4-fluoro-3-methyl-phenyl)-1-methyl-4-[[(1R)-2,2,2-trifluoro-1-methyl-ethyl]sulfamoyl]pyrrole-2-carboxamide] | > 25 | – | 8.00
12 | C[C@H](NS(=O)(=O)c1cn(C)c(C(=O)Nc2ccc(F)c(C#N)c2)c1F)C(C)(F)F [Compound 318, N-(3-cyano-4-fluoro-phenyl)-4-[[(1S)-2,2-difluoro-1-methyl-propyl]sulfamoyl]-3-fluoro-1-methyl-pyrrole-2-carboxamide] | > 25 | – | 7.72
13 | C=Cc1c(S(=O)(=O)N[C@H](C)C(F)(F)F)c(F)c(C(=O)Nc2ccc(F)c(C#N)c2)n1C [Compound 311, N-(3-cyano-4-fluoro-phenyl)-3-fluoro-1-methyl-4-[[(1R)-2,2,2-trifluoro-1-methyl-ethyl]sulfamoyl]-5-vinyl-pyrrole-2-carboxamide] | > 25 | – | 7.22
14 | Cn1cc(S(=O)(=O)NC2(C)COC2)c(F)c1C(=O)Nc1ccc(F)c(Cl)c1 [Compound 108, N-(3-Chloro-4-fluorophenyl)-3-fluoro-1-methyl-4-[(3-methyloxetan-3-yl)sulfamoyl]-1H-pyrrole-2-carboxamide] | > 25 | – | 8.00
15 | C[C@@H](NS(=O)(=O)c1cn(C)c(C(=O)Nc2ccc(F)c(C#N)c2)c1Br)C(F)(F)F [Compound 292, 3-bromo-N-(3-cyano-4-fluoro-phenyl)-1-methyl-4-[[(1R)-2,2,2-trifluoro-1-methyl-ethyl]sulfamoyl]pyrrole-2-carboxamide] | 15.5 | – | 7.52
16 | C[C@@H](NS(=O)(=O)c1c(F)c(C(=O)Nc2ccc(F)c(C#N)c2)n(C)c1C1CC1)C(F)(F)F [Compound 304, N-(3-cyano-4-fluoro-phenyl)-5-cyclopropyl-3-fluoro-1-methyl-4-[[(1R)-2,2,2-trifluoro-1-methyl-ethyl]-sulfamoyl]-pyrrole-2-carboxamide] | > 25 | – | 8.00
17 | C[C@@H](NS(=O)(=O)c1c(Cl)c(C(=O)Nc2ccc(F)c(C#N)c2)n(C)c1C1CC1)C(F)(F)F [Compound 302, 3-chloro-N-(3-cyano-4-fluoro-phenyl)-5-cyclopropyl-1-methyl-4-[[(1R)-2,2,2-trifluoro-1-methyl-ethyl]sulfamoyl]pyrrole-2-carboxamide] | > 25 | – | 7.52
18 | C[C@@H](NS(=O)(=O)c1c(Cl)c(C(=O)Nc2ccc(F)c(C#N)c2)n(C)c1Br)C(F)(F)F [Compound 300, 5-bromo-3-chloro-N-(3-cyano-4-fluoro-phenyl)-1-methyl-4-[[(1R)-2,2,2-trifluoro-1-methyl-ethyl]sulfamoyl]pyrrole-2-carboxamide] | 14.2 | – | 8.10
19 | CC[C@H](NS(=O)(=O)c1cn(C)c(C(=O)Nc2ccc(F)c(C#N)c2)c1F)C(F)(F)F [Compound 284, N-(3-cyano-4-fluoro-phenyl)-3-fluoro-1-methyl-4-[[(1S)-1-(trifluoro-methyl)propyl]sulfamoyl]pyrrole-2-carboxamide] | > 25 | – | 8.05
20 | C[C@@H](NS(=O)(=O)c1cn(C)c(C(=O)Nc2ccc(F)cc2)c1F)C(F)(F)F [Compound 285, 3-fluoro-N-(4-fluorophenyl)-1-methyl-4-[[(1R)-2,2,2-trifluoro-1-methyl-ethyl]sulfamoyl]pyrrole-2-carboxamide] | > 25 | – | 8.15
21 | CC(C)c1c(S(=O)(=O)N[C@H](C)C(F)(F)F)cn(C)c1C(=O)Nc1ccc(F)c(C#N)c1 [Compound 303, N-(3-cyano-4-fluoro-phenyl)-3-isopropyl-1-methyl-4-[[(1R)-2,2,2-trifluoro-1-methyl-ethyl]sulfamoyl]pyrrole-2-carboxamide] | > 25 | – | < 4.90
22 | Cn1cc(S(=O)(=O)NC2(C(F)(F)F)CCC2)c(F)c1C(=O)Nc1ccc(F)c(C#N)c1 [Compound 319, N-(3-cyano-4-fluoro-phenyl)-3-fluoro-1-methyl-4-[[1-(trifluoromethyl)cyclobutyl]sulfamoyl]pyrrole-2-carboxamide] | > 25 | – | > 8.40
23 | Cc1cc(NC(=O)c2cc(S(=O)(=O)NC(C)(C)C(=O)O)cn2C)ccc1F [Compound 61, 2-[[5-[(4-fluoro-3-methyl-phenyl)carbamoyl]-1-methyl-pyrrol-3-yl]-sulfonylamino]-2-methyl-propanoic acid] | > 25 | – | < 6.00
24 | C[C@@H](NS(=O)(=O)c1c(F)c(C(=O)Nc2ccc(F)c(C#N)c2F)n(C)c1Cl)C(F)(F)F [Compound 314, 5-chloro-N-(3-cyano-2,4-difluoro-phenyl)-3-fluoro-1-methyl-4-[[(1R)-2,2,2-trifluoro-1-methyl-ethyl]sulfamoyl]pyrrole-2-carboxamide] | > 25 | – | 8.15
25 | Cn1cc(S(=O)(=O)NC2CCCC2)c(Cl)c1C(=O)Nc1ccc(F)c(C#N)c1 [Compound 307, 3-chloro-N-(3-cyano-4-fluoro-phenyl)-4-(cyclopentylsulfamoyl)-1-methyl-pyrrole-2-carboxamide] | > 25 | – | 7.52
26 | COCC(C)(NS(=O)(=O)c1cc(C(=O)Nc2cc(F)c(F)c(Cl)c2)n(C)c1)C(F)(F)F (stereo not shown) [Compound 73, N-(3-chloro-4,5-difluoro-phenyl)-1-methyl-4-[[2,2,2-trifluoro-1-(methoxymethyl)-1-methyl-ethyl]sulfamoyl]pyrrole-2-carboxamide] | 14.1 | – | 7.00
27 | C[C@@H](NS(=O)(=O)c1cn(C)c(C(=O)Nc2ccc(F)c(C#N)c2)c1F)C(C)(F)F [Compound 317, N-(3-cyano-4-fluoro-phenyl)-4-[[(1R)-2,2-difluoro-1-methyl-propyl]sulfamoyl]-3-fluoro-1-methyl-pyrrole-2-carboxamide] | > 25 | – | 8.22
28 | C[C@@H](NS(=O)(=O)c1c(F)c(C(=O)Nc2ccc(F)c(C#N)c2F)n(C)c1Br)C(F)(F)F [Compound 315, 5-bromo-N-(3-cyano-2,4-difluoro-phenyl)-3-fluoro-1-methyl-4-[[(1R)-2,2,2-trifluoro-1-methyl-ethyl]sulfamoyl]pyrrole-2-carboxamide] | > 25 | – | 8.15
